How the values were obtained:
[1] = tested on: IRF7 mRNA; assay: IRF7 mRNA quantitative PCR in SH-SY5Y cells; type: cell-based, human; details: positive control niclosamide, IFN-α2a 1 h
[2] = tested on: STAT3 phosphorylation; details: concentrations below 10 μmol/L; cited from earlier work
[3] = tested on: Phospho-STAT1 (Tyr701); assay: Western blot of STAT1 phosphorylation in HEK-Blue IFNα/β cells after IFN-α2a; type: cell-based, human; details: niclosamide 10 μmol/L (Fig. 5B, Fig. S2)
[4] = tested on: type-I interferon signaling pathway; assay: SEAP reporter gene assay in HEK-Blue IFNα/β cells stimulated with IFN-α2a; type: cell-based; details: Homo sapiens
[5] = tested on: Phospho-STAT1 (Tyr701); assay: Western blot of STAT1 phosphorylation in SH-SY5Y cells after IFN-α2a; type: cell-based, human; details: niclosamide 10 μmol/L (Fig. 6B)

IC50 [4]: 370 nM
Structure (SMILES): O=C(Nc1ccc([N+](=O)[O-])cc1Cl)c1cc(Cl)ccc1O [niclosamide, Niclosamide]
IRF7 level after compound plus IFN-α2a [1]: 0.84±0.07 folds
effect on STAT phosphorylation [2]: only inhibit STAT3 phosphorylation
effect on STAT1 phosphorylation [3]: also inhibited STAT1 phosphorylation
effect on STAT1 phosphorylation [5]: also inhibited STAT1 phosphorylation
